What was measured:
Assay in all cases: relative viability (nuclei count vs DMSO), 5 days (fraction); higher = more cells survive
LC-2-ad = system: LC-2-ad
Outline: (§1)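 The day after seeding in 1536-well plates, lung cancer cell lines were treated by pin tool with a single drug, or with a fixed anchor-drug dose together with five library-drug doses (not always all listed) in √10 steps. After 5 days, a combined fix-and-stain solution (final 0.05% Triton X-100, 1% formaldehyde, 1 ug/ml Hoechst) was added. Nuclei counted on 4× images gave relative viability as treated counts over vehicle counts, reported as the median of duplicate plates.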

NCI-H727 = system: NCI-H727
Outline: as §1

A-427 = system: A-427
Outline: as §1

NCI-H1944 = system: NCI-H1944
Outline: as §1

PC-3 [JPC-3] = system: PC-3 [JPC-3]
Outline: as §1

LCLC-97TM1 = system: LCLC-97TM1
Outline: as §1

NCI-H1915 = system: NCI-H1915
Outline: as §1

NCI-H441 = system: NCI-H441
Outline: as §1

NCI-H460 = system: NCI-H460
Outline: as §1

BEN = system: BEN
Outline: as §1

NCI-H1650 = system: NCI-H1650
Outline: as §1

CAL-12T = system: CAL-12T
Outline: as §1

NCI-H2023 = system: NCI-H2023
Outline: as §1

NCI-H1651 = system: NCI-H1651
Outline: as §1

NCI-H520 = system: NCI-H520
Outline: as §1

NCI-H2087 = system: NCI-H2087
Outline: as §1

NCI-H596 = system: NCI-H596
Outline: as §1

201T = system: 201T
Outline: as §1

H3255 = system: H3255
Outline: as §1

NCI-H661 = system: NCI-H661
Outline: as §1

NCI-H650 = system: NCI-H650
Outline: as §1

COc1nc(C)cnc1NS(=O)(=O)c1cccnc1-c1ccc(-c2nnco2)cc1 [Zibotentan] + CC1(C)CCC(c2ccc(Cl)cc2)=C(CN2CCN(c3ccc(C(=O)NS(=O)(=O)c4ccc(N[C@H](CCN5CCOCC5)CSc5ccccc5)c(S(=O)(=O)C(F)(F)F)c4)cc3)CC2)C1 [Navitoclax] (partner 0.5 µM)
relative viability (LC-2-ad; first compound 0.08 µM): 0.36
relative viability (LC-2-ad; first compound 0.253 µM): 0.386
relative viability (LC-2-ad; first compound 0.8 µM): 0.533
relative viability (LC-2-ad; first compound 2.53 µM): 0.516
relative viability (NCI-H727; first compound 0.08 µM): 0.48
relative viability (NCI-H727; first compound 0.253 µM): 0.396
relative viability (NCI-H727; first compound 0.8 µM): 0.48
relative viability (NCI-H727; first compound 2.53 µM): 0.435
relative viability (A-427; first compound 0.08 µM): 0.943
relative viability (A-427; first compound 0.253 µM): 0.978
relative viability (A-427; first compound 0.8 µM): 0.978
relative viability (A-427; first compound 2.53 µM): 0.995
relative viability (NCI-H1944; first compound 0.08 µM): 1.06
relative viability (NCI-H1944; first compound 0.253 µM): 1.07
relative viability (NCI-H1944; first compound 0.8 µM): 0.977
relative viability (NCI-H1944; first compound 2.53 µM): 1.03
relative viability (PC-3 [JPC-3]; first compound 0.08 µM): 0.771
relative viability (PC-3 [JPC-3]; first compound 0.253 µM): 0.726
relative viability (PC-3 [JPC-3]; first compound 0.8 µM): 0.795
relative viability (PC-3 [JPC-3]; first compound 2.53 µM): 0.728
relative viability (LCLC-97TM1; first compound 0.08 µM): 0.365
relative viability (LCLC-97TM1; first compound 0.253 µM): 0.402
relative viability (LCLC-97TM1; first compound 0.8 µM): 0.403
relative viability (LCLC-97TM1; first compound 2.53 µM): 0.447
relative viability (NCI-H1915; first compound 0.08 µM): 0.732
relative viability (NCI-H1915; first compound 0.253 µM): 0.79
relative viability (NCI-H1915; first compound 0.8 µM): 0.805
relative viability (NCI-H1915; first compound 2.53 µM): 0.797
relative viability (NCI-H441; first compound 0.08 µM): 0.635
relative viability (NCI-H441; first compound 0.8 µM): 0.794
relative viability (NCI-H441; first compound 2.53 µM): 0.877
relative viability (NCI-H460; first compound 0.08 µM): 1.41
relative viability (NCI-H460; first compound 0.8 µM): 1.14
relative viability (NCI-H460; first compound 2.53 µM): 1.23
relative viability (BEN; first compound 0.08 µM): 0.0813
relative viability (BEN; first compound 0.253 µM): 0.0646
relative viability (BEN; first compound 0.8 µM): 0.059
relative viability (BEN; first compound 2.53 µM): 0.0664
relative viability (NCI-H1650; first compound 0.08 µM): 1.26
relative viability (NCI-H1650; first compound 0.8 µM): 1.36
relative viability (NCI-H1650; first compound 2.53 µM): 1.09
relative viability (CAL-12T; first compound 0.08 µM): 1.27
relative viability (CAL-12T; first compound 0.253 µM): 1
relative viability (CAL-12T; first compound 0.8 µM): 1.45
relative viability (CAL-12T; first compound 2.53 µM): 1.06
relative viability (NCI-H2023; first compound 0.08 µM): 1.05
relative viability (NCI-H2023; first compound 0.253 µM): 0.922
relative viability (NCI-H2023; first compound 0.8 µM): 1.01
relative viability (NCI-H2023; first compound 2.53 µM): 1.1
relative viability (NCI-H1651; first compound 0.08 µM): 1.08
relative viability (NCI-H1651; first compound 0.253 µM): 0.875
relative viability (NCI-H1651; first compound 0.8 µM): 1
relative viability (NCI-H1651; first compound 2.53 µM): 1.11
relative viability (NCI-H520; first compound 0.08 µM): 1.13
relative viability (NCI-H520; first compound 0.253 µM): 0.93
relative viability (NCI-H520; first compound 0.8 µM): 0.996
relative viability (NCI-H520; first compound 2.53 µM): 1.37
relative viability (NCI-H2087; first compound 0.08 µM): 1.03
relative viability (NCI-H2087; first compound 0.253 µM): 1.15
relative viability (NCI-H2087; first compound 0.8 µM): 0.983
relative viability (NCI-H2087; first compound 2.53 µM): 1.05
relative viability (NCI-H596; first compound 0.08 µM): 1.19
relative viability (NCI-H596; first compound 0.253 µM): 0.896
relative viability (NCI-H596; first compound 0.8 µM): 0.958
relative viability (NCI-H596; first compound 2.53 µM): 1.05
relative viability (201T; first compound 0.08 µM): 1.23
relative viability (201T; first compound 0.253 µM): 1.21
relative viability (201T; first compound 0.8 µM): 1.23
relative viability (201T; first compound 2.53 µM): 1.21
relative viability (H3255; first compound 0.08 µM): 0.458
relative viability (H3255; first compound 0.253 µM): 0.603
relative viability (H3255; first compound 0.8 µM): 0.609
relative viability (H3255; first compound 2.53 µM): 0.458

COc1nc(C)cnc1NS(=O)(=O)c1cccnc1-c1ccc(-c2nnco2)cc1 [Zibotentan] + Nc1nc2[nH]cc(CCc3ccc(C(=O)N[C@@H](CCC(=O)O)C(=O)O)cc3)c2c(=O)[nH]1 [Pemetrexed] (partner 0.2 µM)
relative viability (LC-2-ad; first compound 0.08 µM): 0.251
relative viability (LC-2-ad; first compound 0.253 µM): 0.286
relative viability (LC-2-ad; first compound 0.8 µM): 0.27
relative viability (LC-2-ad; first compound 2.53 µM): 0.274
relative viability (A-427; first compound 0.08 µM): 1.18
relative viability (A-427; first compound 0.253 µM): 1.01
relative viability (A-427; first compound 0.8 µM): 0.95
relative viability (A-427; first compound 2.53 µM): 1.07
relative viability (NCI-H1944; first compound 0.08 µM): 0.769
relative viability (NCI-H1944; first compound 0.253 µM): 0.584
relative viability (NCI-H1944; first compound 0.8 µM): 0.61
relative viability (NCI-H1944; first compound 2.53 µM): 0.732
relative viability (PC-3 [JPC-3]; first compound 0.08 µM): 1.51
relative viability (PC-3 [JPC-3]; first compound 0.253 µM): 0.972
relative viability (PC-3 [JPC-3]; first compound 0.8 µM): 1.01
relative viability (PC-3 [JPC-3]; first compound 2.53 µM): 1.27
relative viability (LCLC-97TM1; first compound 0.08 µM): 0.192
relative viability (LCLC-97TM1; first compound 0.253 µM): 0.181
relative viability (LCLC-97TM1; first compound 0.8 µM): 0.154
relative viability (LCLC-97TM1; first compound 2.53 µM): 0.175
relative viability (NCI-H1915; first compound 0.08 µM): 0.477
relative viability (NCI-H1915; first compound 0.253 µM): 0.493
relative viability (NCI-H1915; first compound 0.8 µM): 0.357
relative viability (NCI-H1915; first compound 2.53 µM): 0.526
relative viability (NCI-H441; first compound 0.08 µM): 0.284
relative viability (NCI-H441; first compound 0.253 µM): 0.298
relative viability (NCI-H441; first compound 0.8 µM): 0.262
relative viability (NCI-H441; first compound 2.53 µM): 0.249
relative viability (NCI-H661; first compound 0.08 µM): 0.931
relative viability (NCI-H661; first compound 0.253 µM): 0.881
relative viability (NCI-H661; first compound 0.8 µM): 0.873
relative viability (NCI-H661; first compound 2.53 µM): 0.912
relative viability (NCI-H460; first compound 0.08 µM): 0.0594
relative viability (NCI-H460; first compound 0.253 µM): 0.0676
relative viability (NCI-H460; first compound 0.8 µM): 0.0545
relative viability (NCI-H460; first compound 2.53 µM): 0.0682
relative viability (BEN; first compound 0.08 µM): 0.781
relative viability (BEN; first compound 0.253 µM): 0.707
relative viability (BEN; first compound 0.8 µM): 0.774
relative viability (BEN; first compound 2.53 µM): 0.722
relative viability (NCI-H1650; first compound 0.08 µM): 0.364
relative viability (NCI-H1650; first compound 0.8 µM): 0.387
relative viability (NCI-H1650; first compound 2.53 µM): 0.402
relative viability (CAL-12T; first compound 0.08 µM): 1.28
relative viability (CAL-12T; first compound 0.253 µM): 1.06
relative viability (CAL-12T; first compound 0.8 µM): 1.23
relative viability (CAL-12T; first compound 2.53 µM): 1.16
relative viability (NCI-H2023; first compound 0.08 µM): 0.243
relative viability (NCI-H2023; first compound 0.8 µM): 0.225
relative viability (NCI-H2023; first compound 2.53 µM): 0.251
relative viability (NCI-H1651; first compound 0.08 µM): 0.594
relative viability (NCI-H1651; first compound 0.253 µM): 0.581
relative viability (NCI-H1651; first compound 0.8 µM): 0.578
relative viability (NCI-H1651; first compound 2.53 µM): 0.539
relative viability (NCI-H650; first compound 0.08 µM): 0.947
relative viability (NCI-H650; first compound 0.253 µM): 0.927
relative viability (NCI-H650; first compound 0.8 µM): 0.905
relative viability (NCI-H650; first compound 2.53 µM): 0.977
relative viability (NCI-H520; first compound 0.08 µM): 0.626
relative viability (NCI-H520; first compound 0.253 µM): 0.665
relative viability (NCI-H520; first compound 0.8 µM): 0.682
relative viability (NCI-H520; first compound 2.53 µM): 0.695
relative viability (NCI-H2087; first compound 0.08 µM): 0.677
relative viability (NCI-H2087; first compound 0.253 µM): 0.666
relative viability (NCI-H2087; first compound 0.8 µM): 0.536
relative viability (NCI-H2087; first compound 2.53 µM): 0.746
relative viability (NCI-H596; first compound 0.08 µM): 0.455
relative viability (NCI-H596; first compound 0.253 µM): 0.429
relative viability (NCI-H596; first compound 0.8 µM): 0.522
relative viability (NCI-H596; first compound 2.53 µM): 0.501
relative viability (201T; first compound 0.08 µM): 0.327
relative viability (201T; first compound 0.253 µM): 0.355
relative viability (201T; first compound 0.8 µM): 0.247
relative viability (201T; first compound 2.53 µM): 0.323
relative viability (H3255; first compound 0.08 µM): 0.635
relative viability (H3255; first compound 0.253 µM): 0.549
relative viability (H3255; first compound 0.8 µM): 0.575
relative viability (H3255; first compound 2.53 µM): 0.56
